This note sets out measurements from PMC7591920, “A protein tertiary structure mimetic modulator of the Hippo signalling pathway” (Nature Communications, 2020).

Bridge positions count the residues as written; N and C are the ends. Square brackets hold non-standard residues; d marks the D form. Peptide text beside a SMILES is read from it. Orn = NCCC[C@H](N)C(=O)O; Dab = NCC[C@H](N)C(=O)O

Data set [1] deals with T1, mTEAD4 (Mus musculus, UniProt Q62296).
T1 construct: Mouse TEAD4(210–427) cDNA fused with a 6x His-tag and a 3C protease cleavage site; 6x His-tag; 3C protease cleavage site; made in house; host or cells: E. coli BL21 DE3 RIL(K+)
T1 sequence (Q62296 210-427): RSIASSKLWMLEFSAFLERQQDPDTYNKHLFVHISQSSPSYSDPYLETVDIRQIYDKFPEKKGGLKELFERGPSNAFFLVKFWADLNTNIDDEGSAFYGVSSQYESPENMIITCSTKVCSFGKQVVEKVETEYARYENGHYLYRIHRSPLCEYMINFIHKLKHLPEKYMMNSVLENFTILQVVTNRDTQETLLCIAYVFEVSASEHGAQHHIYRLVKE
Description: SPR binding to immobilised mTEAD4. Particulars: mTEAD4 amine-coupled on CM5, multi-cycle, steady-state fit 1:1 model, 10 mM HEPES 150 mM NaCl 0.05% Tween-20 pH 7.4, 0.3% DMSO, 20 °C, Fig. 1 values n = 1 replicate. The procedure:
(§1) Sensor chips Series S CM5 (Research grade) were obtained from GE Healthcare. Prior to use, the sensor chips were equilibrated at room temperature for 15 min to prevent water condensation on the detector side of the sensor chip surface. A running buffer was prepared composed of 10 mM HEPES, 150 mM NaCl, and 0.05% (w/v) Tween-20, pH 7.4, and the system was equilibrated at 20 °C using a flow rate of 30 µL min^−1 after docking of the sensor chip. Ligand binding experiments have been performed applying the concept of multi-cycle kinetics. A contact time of 45 s was selected, followed by a 6-min dissociation phase to allow for complete dissociation of the analyte prior to the next cycle. […] Typically, seven concentrations of the analytes have been examined applying a threefold dilution pattern with 30 µM as top concentration. For the analysis, five running buffer blanks were injected to equilibrate the instrument. […] The carboxyl-dextran surface was activated for 7 min with 0.05 M NHS and 0.2 M EDC, followed by an injection of the proteins in 10 mM MES pH 6.4 at a concentration of 30–50 µg mL^−1. […] This was followed by a deactivation of the residual esters by injecting a solution of 0.5 M ethanolamine pH 8.0 for 7 min before engaging in ligand binding experiments. Reference surfaces were prepared accordingly, omitting the injection of protein over the activated reference surface.

For a further data set, the target named is T2, GST-hTEAD1 (Homo sapiens, UniProt P28347).
T2 construct: CDNA of hTEAD1(209–426) fused with an N-terminal GST tag; made in house; host or cells: Escherichia coli BL21 DE3 RIL(K+)
T2 sequence (P28347 209-426): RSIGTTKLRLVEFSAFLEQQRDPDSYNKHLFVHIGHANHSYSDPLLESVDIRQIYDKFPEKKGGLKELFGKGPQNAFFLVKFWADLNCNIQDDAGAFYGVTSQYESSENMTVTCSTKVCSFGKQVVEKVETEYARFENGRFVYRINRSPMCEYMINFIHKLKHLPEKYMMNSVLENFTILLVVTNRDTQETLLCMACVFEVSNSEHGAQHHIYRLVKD
Description: SPR binding to immobilised GST-hTEAD1. Particulars: GST-hTEAD1 amine-coupled on CM5, multi-cycle, steady-state fit 1:1 model, 10 mM HEPES 150 mM NaCl 0.05% Tween-20 pH 7.4, 0.3% DMSO, 20 °C, Fig. 1 values n = 1 replicate. The procedure: as §1

Data set [2] relates to primary juvenile (P5–P6) rat cardiomyocytes. Put plainly: Cell cycle activity assay (Ki67/αActinin) in juvenile rat cardiomyocytes. The data set is classed as cell-based. The following applies: c = 10 µM, 4 days, relative to DMSO-treated cells (100), mean of N = 6. Here is the method: One day after seeding, the cells were treated with test compounds of interest. Treatments were applied with an ECHO 520 acoustic dispenser (Labcyte) and medium was added to the wells. Four days after treatment, the cells were fixed with 4% formaldehyde (Roth) and immunostained in 0.2% Triton-X100 (Roth) in PBS (Gibco) supplemented with 5% FBS. […] Samples were then imaged and analysed on an ImageXpress XL automated microscope (Molecular Devices). Data are depicted as means ± SEM.

The test system of another data set is rat heart cells. Description: Cell toxicity assessment on rat heart cells in culture. Particulars: c(peptide) = 10 µM. Here is the method: whole heart cells monitored by fluorescence microscopy after 90 minutes treatments (scale bar: 25 µm), number of […]
4E as well as control compounds (SB203580, CHIR99021) on rat heart cells in culture (c(peptide) = 10 µM). Number of independent biological replicates: n = 6, error bars = SEM. […]
cytometry analysis of live cells after 90 min incubation at 5 µM: Representative histogram plot, (-) DMSO control). Source data are provided as a Source Data file.
(1 picture or pasted object on this page, not shown here)

For data set [3], the target named is T1, mTEAD4. Put plainly: Competition fluorescence polarization with mTEAD4 (alanine scan). Format: binding. Particulars: Ac-peptide vs FITC-labelled tracer peptide 10 nM, mTEAD4 400 nM, 1 h. Here is the method:
Competition FP: N-terminally acetylated peptides were diluted 1:1 in a 384-well plate (5 μL, 75 μM−9 pM). Ten microlitres of a mixture (1:1) of mTEAD4 and FITC-labelled peptide was added (final concentrations: acetylated peptides = 50 μM−6 pM; mTEAD4 protein = 400 nM; FITC-labelled tracer peptide = 10 nM). After 1 h, FP was measured (λ(ex) = […]). IC50 was determined from the binding curve with GraphPad from Prism.
For orientation: In fluorescence polarisation assays a small probe gives low polarisation when free and higher when bound to something large.

As usually defined, the Kd is the constant that tells how readily two partners part at equilibrium. A higher Kd goes with a looser complex. For the compound `CC(=O)N[C@@H](CC(=O)O)C(=O)N1CCC[C@H]1C(=O)N[C@H](C(=O)N[C@H](C(=O)N[C@@H](CCC(=O)O)C(=O)N[C@@H](CCC(=O)O)C(=O)N[C@@H](Cc1c[nH]cn1)C(=O)N[C@@H](Cc1ccccc1)C(=O)N[C@@H](CCCNC(=N)N)C(=O)N[C@@H](CCCNC(=N)N)C(=O)N[C@@H](CO)C(=O)N[C@@H](CC(C)C)C(=O)NCC(=O)N[C@@H](CCCCN)C(=O)N[C@@H](CC(N)=O)C(=O)N[C@@H](Cc1ccc(O)cc1)C(N)=O)C(C)C)C(C)C` [compound 2] (Ac-DPVVEEHFRRSLGKNY-NH2), the Kd on mTEAD4 [1] turned out to be 21.8 µM; on GST-hTEAD1 it was 19.4 µM.
Turning to `CC[C@H](C)[C@@H]1NC(=O)[C@H](CCC(N)=O)NC(=O)[C@H](CC(C)C)NC(=O)[C@H](Cc2c[nH]c3ccccc23)NC(=O)[C@H]([C@@H](C)O)NC(=O)[C@H](CC(=O)O)NC(=O)CNC(=O)[C@H](CC(C)C)NC(=O)[C@H](C)NC(=O)[C@H](CCCCN)NC(=O)[C@H](C)NC(=O)[C@H](Cc2ccccc2)NC(=O)[C@H](Cc2c[nH]cn2)NC(=O)[C@H](CC(=O)O)NC(=O)[C@@H](NC(=O)[C@@H](NC(=O)[C@H](C)NC(C)=O)C(C)C)CCC(=O)NCCCC[C@@H](C(=O)N[C@@H](C)C(=O)N[C@@H](C)C(N)=O)NC1=O` [compound 14] (Ac-AVEDHFAKALGDTWLQIKAA-NH2; lactam 3-18), the dissociation constant (Kd) at GST-hTEAD1 was 1.5 ± 0.02 µM.
Turning to `CC[C@H](C)[C@H](NC(=O)[C@H](CCC(N)=O)NC(=O)[C@H](CC(C)C)NC(=O)[C@H](Cc1c[nH]c2ccccc12)NC(=O)[C@@H](NC(=O)[C@H](CC(=O)O)NC(=O)CNC(=O)[C@H](CC(C)C)NC(=O)[C@H](C)NC(=O)[C@H](CCCCN)NC(=O)[C@H](C)NC(=O)[C@H](Cc1ccccc1)NC(=O)[C@H](Cc1c[nH]cn1)NC(=O)[C@H](CC(=O)O)NC(=O)[C@H](CC(=O)O)NC(=O)[C@@H](NC(=O)[C@H](CO)NC(C)=O)C(C)C)[C@@H](C)O)C(=O)N[C@@H](C)C(=O)N[C@@H](C)C(=O)N[C@@H](C)C(N)=O` [compound 13] (Ac-SVDDHFAKALGDTWLQIAAA-NH2), the dissociation constant Kd was found to be 12 µM on mTEAD4 [1] and 17 µM on GST-hTEAD1.
With `Cc1c[nH]c(-c2cnc(NCCNc3ccc(C#N)cn3)nc2-c2ccc(Cl)cc2Cl)n1` [CHIR99021, reference compound], in data set [2], the “Cell cycle activity, MEAN” value is recorded as 152.398. Moreover, the “Total cell number (% DMSO control)” value in the data set with rat heart cells (raw data replicate 1) is recorded as 164.318 % DMSO control; in the data set on rat heart cells (raw data replicate 2) it was 154.314 % DMSO control; in the data set with rat heart cells (raw data replicate 3), 186.382 % DMSO control; with rat heart cells (raw data replicate 4) it was 116.435 % DMSO control; with rat heart cells (raw data replicate 5), 128.897 % DMSO control; in the data set on rat heart cells (raw data replicate 6), 164.042 % DMSO control.
A word on the IC50: it is the concentration that gives 50% inhibition. Low values mean inhibition by little substance, high ones a need for much substance. On to `CC[C@H](C)[C@@H]1NC(=O)[C@H](CCC(N)=O)NC(=O)[C@H](CC(C)C)NC(=O)[C@H](C)NC(=O)[C@H]([C@@H](C)O)NC(=O)[C@H](CC(=O)O)NC(=O)CNC(=O)[C@H](CC(C)C)NC(=O)[C@H](C)NC(=O)[C@H](CCCCN)NC(=O)[C@H](C)NC(=O)[C@H](Cc2ccccc2)NC(=O)[C@H](Cc2c[nH]cn2)NC(=O)[C@H](CC(=O)O)NC(=O)[C@@H](NC(=O)[C@@H](NC(=O)[C@H](CO)NC(C)=O)C(C)C)CCC(=O)NCCCC[C@@H](C(=O)N[C@@H](C)C(=O)N[C@@H](C)C(N)=O)NC1=O` [compound 23] (Ac-SVEDHFAKALGDTALQIKAA-NH2; lactam 3-18), for which binding at mTEAD4 [1] was put at a Kd of 15 ± 0.85 µM. The compound further returned a half-inhibitory concentration (IC50) on mTEAD4 [3] greater than 50 µM.
For the compound `CC[C@H](C)[C@@H]1NC(=O)[C@H](CCC(N)=O)NC(=O)[C@H](CC(C)C)NC(=O)[C@H](Cc2c[nH]c3ccccc23)NC(=O)[C@H]([C@@H](C)O)NC(=O)[C@H](CC(=O)O)NC(=O)CNC(=O)[C@H](CC(C)C)NC(=O)[C@H](C)NC(=O)[C@H](CCCCN)NC(=O)[C@H](C)NC(=O)[C@H](Cc2ccccc2)NC(=O)[C@H](Cc2c[nH]cn2)NC(=O)[C@H](CC(=O)O)NC(=O)[C@@H](NC(=O)[C@@H](NC(=O)[C@H](CO)NC(C)=O)C(C)C)CCC(=O)NCCC[C@@H](C(=O)N[C@@H](C)C(=O)N[C@@H](C)C(N)=O)NC1=O` [4D] (Ac-SVEDHFAKALGDTWLQI[Orn]AA-NH2; lactam 3-18), the affinity at GST-hTEAD1, expressed as Kd, was 1.5 µM.
Turning to `CC[C@H](C)[C@H](NC(=O)[C@H](CO)NC(=O)[C@@H](NC(=O)[C@H](CO)NC(=O)[C@H](CC(N)=O)NC(=O)[C@@H]1CCCN1C(=O)[C@H](C)NC(=O)[C@@H]1CCCN1C(=O)[C@H](CCC(=O)O)NC(=O)[C@@H]1CCCN1C(=O)[C@H](CCC(=O)O)NC(=O)[C@H](CCCCN)NC(C)=O)C(C)C)C(=O)N[C@H](C(=O)NCC(N)=O)[C@@H](C)O` [compound 3] (Ac-KEPEPAPNSVSITG-NH2), the Kd on mTEAD4 [1] and at GST-hTEAD1 was greater than 100 µM each time.
Compound `CC[C@H](C)[C@@H]1NC(=O)[C@H](CCC(N)=O)NC(=O)[C@H](CC(C)C)NC(=O)[C@H](Cc2c[nH]c3ccccc23)NC(=O)[C@H]([C@@H](C)O)NC(=O)[C@H](CC(=O)O)NC(=O)CNC(=O)[C@H](CC(C)C)NC(=O)[C@H](C)NC(=O)[C@H](C)NC(=O)[C@H](C)NC(=O)[C@H](Cc2ccccc2)NC(=O)[C@H](Cc2c[nH]cn2)NC(=O)[C@H](CC(=O)O)NC(=O)[C@@H](NC(=O)[C@@H](NC(=O)[C@H](CO)NC(C)=O)C(C)C)CCC(=O)NCCCC[C@@H](C(=O)N[C@@H](C)C(=O)N[C@@H](C)C(N)=O)NC1=O` [compound 19] (Ac-SVEDHFAAALGDTWLQIKAA-NH2; lactam 3-18) had a Kd on GST-hTEAD1 of 1.7 ± 0.01 µM.
Take `CC[C@H](C)[C@H](NC(=O)[C@H](CCC(N)=O)NC(=O)[C@H](CC(C)C)NC(=O)[C@H](Cc1c[nH]c2ccccc12)NC(=O)[C@@H](NC(=O)[C@H](CC(=O)O)NC(C)=O)[C@@H](C)O)C(=O)N[C@@H](CCCCN)C(=O)N[C@@H](C)C(=O)N[C@@H](C)C(N)=O` [compound 6] (Ac-DTWLQIKAA-NH2): the Kd at mTEAD4 [1] and at GST-hTEAD1 was greater than 100 µM each time.
As for `C[S+]([O-])c1ccc(-c2nc(-c3ccncc3)c(-c3ccc(F)cc3)[nH]2)cc1` (stereo not shown) [SB203580, reference compound], in data set [2], the “Cell cycle activity, MEAN” value worked out at 122.95.
Turning to `CC[C@H](C)[C@@H]1NC(=O)[C@H](CCC(N)=O)NC(=O)[C@H](CC(C)C)NC(=O)[C@H](Cc2c[nH]c3ccccc23)NC(=O)[C@H]([C@@H](C)O)NC(=O)[C@H](CC(=O)O)NC(=O)CNC(=O)[C@H](CC(C)C)NC(=O)[C@H](C)NC(=O)[C@H](CCCCN)NC(=O)[C@H](C)NC(=O)[C@H](Cc2ccccc2)NC(=O)[C@H](Cc2c[nH]cn2)NC(=O)[C@H](CC(=O)O)NC(=O)[C@@H](NC(=O)[C@@H](NC(=O)[C@H](CO)NC(C)=O)C(C)C)CC(=O)NCC[C@@H](C(=O)N[C@@H](C)C(=O)N[C@@H](C)C(N)=O)NC1=O` [4A] (Ac-SVDDHFAKALGDTWLQI[Dab]AA-NH2; lactam 3-18), the Kd at mTEAD4 [1] stood at 11 µM.
